Data as given in patent publication US7037663B2, “Human zona pellucida protein 3 and uses thereof” (Eastern Virginia Medical School, priority 1998, dated 2006).

Experiments:
[1] = system: human sperm; assay: Acrosome reaction of capacitated sperm by FITC/PSA with Hoechst 33258 viability stain, first series; format: cell-based; details: NT 30 ng/ml, calcium ionophore 5 μM, rhZP3 30 ng/ml, solubilized zona 0.5 ZP/μl, mean (± SEM)
Description: The purified rhZP3 was also applied to test its activity to induce human sperm acrosome reaction. The motile sperm obtained by swim-up procedure were allowed to capacitate in HTF/0.5% HSA for four hours at 37° C. in 5% CO2 in huminified air. The motile sperm concentration used to detect acrosome reaction was set at 2 million/ml. A series of 100 ul of capacitated sperm aliquots with different inducers were prepared in Eppendorf vials and cultured in the incubator in 95% air, 5% CO2, at 37° C. for 30 minutes. The test was conducted as follows: positive control: calcium ionophore A23187 (Sigma) at 5 μM; negative controls: 1) sperm culture medium alone, and 2) protein isolated from the culture media of non-transfected PA-1 cells (NT); test: rhZP3. Triple slides were made for each assay. Hoechst 33258 stain was used for determination of sperm viability. Fluorescein isothiocyanate conjugated Pisum sativum agglutinin (FITC/PSA) (Sigma) staining technique was employed to evaluate the acrosome reaction (Cross et al, 1986). Blind reading was required for evaluation and at least 100˜200 cells from 5 random fields were evaluated per spot on the slide. […] The results were expressed as percentage of acrosome-reacted spermatozoa in the total population counted (Cross, 1986).
In some experiments, Solubilized zona pellucida were used as control to test its function to induce sperm acrosome reaction. The solubilized zona pellucida were prepared according to Franken et al (1996). Ooplasma was removed using a small glass micropipette. A vigorous pipetting action would break their zona causing ooplasma to be spilled into surrounding medium. The chosen amount of zonae was transferred into an eppendorf tube and was centrifuged for 15 minutes at 300×g. Using a steromicroscope, the media were removed with pipette, making sure not to disturb zona. The final result was to remove maximum medium. A chosen volume (depending on the zona concentration needed) of 10 mM HCl was added. Under the microscopic vision, zona/HCl was pipetted up and down until all zona were dissolved. Then 10 mM NaOH of equal volume as the HCl was added and mixed well to obtain the stock zona solution.

[2] = system: sperm; assay: Sperm motion parameters by computer analyzer; details: data not shown
[3] = system: human sperm; assay: Acrosome reaction of live sperm by FITC-PSA, second series; format: cell-based; details: A23187 5 μM
Description: Determination of the acrosome reaction—The proportion of live acrosome-reacted spermatozoa incubated under capacitating conditions was determined with the fluorescent probe fluorescein isothiocyanate-labeled Pisum Sativum Agglutinin (FITC-PSA, Sigma) after staining with a supravital stain (Hoechst 33258, Sigma) following established techniques (12,13). At least 200 sperm per sample were evaluated in duplicate at 600× magnification using an epifluorescence microscope equipped with phase-contrast optics (Optiphot; Nikon, Melville, N.Y.). Slides were coded and read in a blind fashion.
A calcium ionophore agent (A23187, Sigma) tested at 5 μM and human acid solubilized zona pellucida tested at a final concentration of 4 zona/10 μl were used as positive controls (20). In further experiments, the acrosomal status was assessed by transmission electron microscopy. Spermatozoa were fixed by mixing sperm suspensions with equal volumes of 2% (v/v) glutaraldehyde (in 3 mM CaCl2 and 0.1 M sodium cacodylate); thereafter, samples were dehydrated twice and prepared for thin sectioning using previously published procedures. Ultrastructural examination was performed with a transmission electron microscope (Jeol JEM-1200 EX II, Peabody, Mass.).
Experiment 2: Characterization of the acrosome reaction inducing activity of the rhZP3 in dose- and sperm capacitation-dependency studies—Motile sperm fractions from 29 ejaculates of 11 different donors were incubated under capacitating conditions for 3 hours and assayed for acrosome reaction using FITC-PSA. Following swim-up, sperm aliquots were pre-incubated for 30 minutes with rhZP3 (30 ng/ml), A23187 (positive control), culture medium from non-transfected PA-cells (NT) or sperm culture medium (negative controls). This was the initially selected dose of rhZP3 to be tested as it had proven to effect significant inhibition of sperm-zona binding in the HZA.
The dose-dependent effect of rhZP3 on acrosome reaction was examined in the swim-up fractions obtained from four different donors. The fractions were capacitated for 3 hours and exposed for 30 min to rhZP3 at final concentrations of 0, 7.5, 15, 30, 60, 120, 240, 480, 960 and 1920 ng/ml. The capacitation-dependency of the acrosome reaction-inducing activity of rhZP3 was assessed in the swim-up fractions of four ejaculates from four different donors. Capacitation times included: 0 (immediately post-swim-up), 1, 4, 8, 12 and 24 hours. After the capacitation period, rhZP3 was added to the sperm suspension at a final concentration of 30 ng/ml.
In another set of experiments, three different ejaculates were used to compare the effects of the rhZP3 (tested at 500 ng/ml) with those of solubilized zonae pellucidae and the calcium ionophore. Further, the induction of the acrosome reaction was assessed in parallel with FITC-PSA and transmission electron microscopy. The goal of these studies was to compare the morphological features of the acrosome reaction between agonists and also between the agonist-induced and basal exocytosis rates.

[4] = system: Gi proteins; assay: Pertussis toxin pre-incubation before rhZP3-induced acrosome reaction; format: cell-based, human
Description: Experiment 3: Acrosome reaction-inducing activity of rhZP3: effect on Gi proteins—Motile sperm fractions were obtained from the ejaculates of three donors and incubated under capacitating conditions. In each experiment, the test aliquot was pre-incubated with pertussis toxin (100 ng/ml final concentration) for 4 hours followed by incubation with rhZP3 (500 ng/ml). A control aliquot was incubated in culture medium alone for 4 hours and then treated with rhZP3 at the same dose. After 30 min exposure to rhZP3 or control conditions, sperm were assayed for acrosome reaction using FITC-PSA.

Compound	% acrosome reacted-sperm ([1]; 4 h capacitation, 30 min)	% sperm viability [1]	sperm motion parameters, treatment versus control [2]	live, acrosome reacted sperm ([3]; rhZP3 30 ng/ml, 3 h capacitation, 30 min exposure)	induction of the acrosome reaction ([3]; rhZP3 500 ng/ml, solubilized zona 4 zona/10 μl)	effect on basal rate of spontaneous acrosomal exocytosis ([4]; pertussis toxin 100 ng/ml)	effect on induction of the acrosome reaction by rhZP3 ([4]; pertussis toxin 100 ng/ml 4 h, then rhZP3 500 ng/ml 30 min)
CNc1ccc2oc(C[C@H]3O[C@@]4(CC[C@H]3C)O[C@H]([C@H](C)C(=O)c3ccc[nH]3)[C@H](C)C[C@H]4C)nc2c1C(=O)O [Calcium ionophore, A23187, reference compound]	22.5%	96.5 (2.0) %	not significantly different	19.4±4.1%	34.7±5.2%		
pertussis toxin			not significantly different			did not modify the basal rate of spontaneous acrosomal exocytosis	inhibited the induction of the acrosome reaction by rhZP3
